Measured values taken from US6677501B2, “P2X7 receptor-deficient mice and uses thereof” (Pfizer, Inc., priority 2000, dated 2004).
Where “and” joins values, the source holds several entries; their conditions need not be identical. Identical values can stand only once.

Legend:
[1] = test system: mouse peritoneal macrophages; experiment: YoPro Yellow uptake by peritoneal macrophages; format: cell-based; settings: 5 mM ATP
Description: Peritoneal macrophages were washed with Isotonic Medium (15 mM Hepes, pH 7.2, 135 mM NaCl, 5 mM KCl, […], […]) by centrifugation and the resulting cell pellet was suspended in Isotonic Medium to achieve a final cell concentration of 1×10^6 cells/ml. Fifty μl of this cell suspension then was placed into wells of a Microfluor “B” U-bottom plate (Dynatech, Chantilly, Va.), and 50 μl of 2 μM YoPro Yellow (Molecular Probes, Eugene, Ore.); the fluorescent dye was dissolved in Isotonic Medium. Wells were then adjusted to 5 mM ATP or 0.0075% saponin by addition of concentrated stock solutions of these agents. Fluorescence was monitored as a function of time at 37° C., excitation, 450 nm/emission, 530 nm.

[2] = test system: LPS-activated peritoneal macrophages; experiment: Stimulus-induced IL-1β posttranslational processing in vitro; format: cell-based, mouse; settings: 35S-methionine-labeled, 30 min, 5 mM ATP or 20 μM nigericin
Description: (§1) Macrophages from wild type and P2×7^−/− animals (1×10^6 cells seeded per well of 6-well cluster plates) were stimulated with 1 μg/ml E. coli LPS (Serotype 055 B5 obtained from Sigma; St. Louis, Mo.) for 75-90 minutes and then rinsed with 2 ml of methionine-free RPMI medium containing 100 units/mi penicillin, 100 μg/ml streptomycin, 1% dialyzed FBS, 1 μg/ml LPS, and 25 mM Hepes, pH 7.3 (Pulse Medium). One ml of Pulse Medium containing 83 μCi/Ml of ^35S-methionine (Amersham Corp, Chicago, Ill.) then was added to each well, and the cells were labeled at 37° C. for 1 hour. These labeled cells subsequently were rinsed twice with RPMI 1640 medium containing 100 units/mil penicillin, 100 μg/ml streptomycin, 1% FBS, 2 mM glutamine, 1 μg/ml LPS and 25 mM Hepes, pH 7.3 (Chase Medium). One ml of Chase Medium (containing no effector (control) or containing 05 mM ATP, or 20 mM nigericin) was then added to each well, and the cells were chased at 37° C. for 30 minutes. Media were harvested and clarified by centrifugation (6000×g for 5 minutes) to remove cells and/or cell debris. Cell monolayers were suspended in 1 ml of a lysis buffer composed of 1% Triton X-100, 150 mM NaCl, 25 mM Hepes, pH 7, 0.1 mM PMSF, 1 mg/ml ovalbumin, 1 mM iodoacetic acid, 1 μg/ml pepstatin, and 1 μg/ml leupeptin. Clarified media samples were adjusted to the same final Triton X-100 and protease inhibitor concentrations by addition of aliquots from concentrated stocks of these reagents. After a 30 minute incubation on ice, all samples were clarified by centrifugation at 45,000 rpm for 30 minutes in a TLA-45 rotor (Beckman, Palo Alto, Calif.), the resulting supernatants were recovered, and IL-1β was immunoprecipitated from these samples using a goat anti-murine IL-1β serum obtained from Dr. Ivan Otterness (Pfizer Central Research, Groton, Conn.). Immnunoprecipitates were fractionated by SDS gel electrophoresis, the quantity of radioactivity associated with individual IL-1β polypeptide species was determined by scanning dried gels with a Phosphoimager.

[3] = test system: LPS-activated peritoneal macrophages; experiment: LDH release from LPS-activated macrophage cultures; format: cell-based, mouse; settings: 30 min
Description: FIG. 6B is a graphic representation showing the percentage of lactate dehydrogenase (LDH) released from the total culture associated LDH in the samples described in FIG. 6A;
as §1, with “After a 30 minute incubation on ice, all samples were clarified by centrifugation at 45,000 rpm for 30 minutes in a TLA-45 rotor (Beckman, Palo Alto, Calif.), the resulting supernatants were recovered, and IL-1β was immunoprecipitated from these samples using a goat anti-murine IL-1β serum obtained from Dr. Ivan Otterness (Pfizer Central Research, Groton, Conn.).” left out

IL-1β = experiment: ATP-induced IL-1β posttranslational processing in vivo (peritoneal lavage ELISA); set-up: species or system mouse
Description: (§2) ATP-Induced IL-1β Posttranslational Processing In Vivo Groups of mice were injected intraperitoneally (ip) with 1 μg of LPS. Two hours after this LPS injection, mice were injected ip with either 30 mM ATP (adjusted to pH 7) or PBS. Mice were sacrificed 30 minutes or 120 minutes after the ATP or PBS injection and peritoneal cavities were lavaged, each with 3 ml of RPMI (5% FCS). Samples of peritoneal lavages were spun down, supernatants were collected and tested for the presence of IL-1β and IL-6 using ELISAs (Amersham Life Sciences, Arlington Heights, Va. and Endogen, Woburn, Mass., respectively).

IL-6 = experiment: ATP-induced IL-6 release in LPS-primed mice (peritoneal lavage ELISA); format: in vivo, mouse; settings: for IL-6 (ng/ml), ATP Challenge, P2×7R-/-: LPS-primed P2×7R-/- mice; for IL-6 (ng/ml), ATP Challenge, P2×7R-/- / IL-6 (ng/ml), ATP Challenge, WT: ip ATP, peritoneal lavage; for IL-6 (ng/ml), ATP Challenge, WT: LPS-primed wild-type mice
Description: as §2
As noted earlier, IL-1 signaling often leads to the production of other cytokines such as IL-6 (Allen et al. (2000) J. Exp. Med. 191:859-869). […] Two hours later an injection of ATP (or PBS) was administered to promote IL-1 posttranslational processing and the mice were incubated for an additional 4 hours. Peritoneal lavages were collected at several times during the course of the experiment and analyzed for IL-6 by ELISA. […] Mice that received an initial priming injection of LPS followed by PBS yielded levels of IL-6 at 1 and 2 hours (4 to 5 ng/ml) that were elevated above those recovered from mice injected with the combination of phosphate buffered saline and ATP (FIG. 8). By 4 hours, however, IL-6 levels recovered from the LPS-PBS treated animals returned to baseline (FIG. 9).

P2×7R = settings: cited from earlier work
other P2× receptors = settings: cited from earlier work

Row | Structure (SMILES) | YoPro Yellow fluorescence intensity ([1]; P2×7R-/- macrophages) | YoPro Yellow fluorescence intensity ([1]; wild-type macrophages) | extracellular 17 kDa IL-1β as percentage of total radiolabeled IL-1β recovered ([2]; P2×7R-/- macrophages) | extracellular 17 kDa IL-1β as percentage of total radiolabeled IL-1β recovered ([2]; wild-type macrophages) [%] | release of lactate dehydrogenase (LDH) ([3]; wild-type macrophages) | IL-1β in peritoneal lavage after ATP challenge (IL-1β; LPS-primed mice heterozygous (+/-) for the P2×7R disruption, 30 min) | IL-1 (ng/ml), ATP Challenge, WT (IL-1β; LPS-primed wild-type mice, ip ATP, 120 min post challenge, peritoneal lavage) | IL-6 (ng/ml), ATP Challenge, P2×7R-/- (IL-6; 30 min post challenge) [ng/mL] | IL-6 (ng/ml), ATP Challenge, P2×7R-/- (IL-6; 120 min post challenge) [ng/mL] | IL-6 (ng/ml), ATP Challenge, WT (IL-6; 30 min post challenge) [ng/mL] | IL-6 (ng/ml), ATP Challenge, WT (IL-6; 120 min post challenge) | peak lavage fluid IL-6 (IL-6; wild-type mice, LPS at time 0, ATP at 2 hours, 4 hour time point) [ng/mL] | lavage fluid IL-6 (IL-6; wild-type mice, priming injection of PBS followed 2 hours later by ATP) | levels of ATP required to achieve activation (P2×7R) [mM] | ATP concentrations at which receptors activate (other P2× receptors) [µM] | release of lactate dehydrogenase (LDH) ([3]; P2×7R-/- macrophages)
1 | Nc1ncnc2c1ncn2[C@@H]1O[C@H](COP(=O)(O)OP(=O)(O)OP(=O)(O)O)[C@@H](O)[C@H]1O [ATP] | did not result in time-dependent increase in fluorescence intensity | time dependent increase in fluorescence intensity | did not release any radiolabeled IL-1β | 64 | enhanced release | A similar pattern | 0.34 ng/mL and 0.33 ± 0.08 ng/mL | 9 ± 1 | 6 | 8.2 ± 1.7 | 17 ng/mL and 16.8 ± 2.3 ng/mL | > 25 | did not contain significant levels of IL-6 at any time | > 1 | ≤ 100 | –
2 | CO[C@@H]1C[C@@H](C[C@H]2CC[C@H](C)[C@H]([C@@H](C)C(=O)O)O2)O[C@]2(O[C@](C)([C@H]3CC[C@@](C)([C@@H]4O[C@@H]([C@H]5O[C@@](O)(CO)[C@H](C)C[C@@H]5C)C[C@@H]4C)O3)C[C@H]2C)[C@@H]1C [nigericin] | – | – | 74% | 66 | comparable quantities of LDH | – | – | – | – | – | – | – | – | – | – | comparable quantities of LDH
